The source of these data is ChEMBL document CHEMBL1201862, “PubChem BioAssay data set” (2004).

Among the test systems are SNB-19; K562; MDA-MB-435; OVCAR-8; CCRF-CEM; SN12C; Malme-3M; CAKI-1; DU-145; COLO 205; A549; MCF7; A498; EKVX; HL-60; SK-OV-3; NCI-H460; SF-268; 786-0; SK-MEL-28.
What all share (experiment): DTP human tumour cell line panel, 48 h

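Step 1: Grow cells in 96-well plates. Step 2: Expose to compound for 48 hours at 5 concentrations. Step 3: Interpolate endpoints linearly; if unreached, use highest concentration. GI50 marks 50% less growth.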 Activity calls are given as the source filed them. Cut-off read from the data, not from the text of the source: active = GI50 up to about 1.1 µM and inactive = higher. A value given as a limit tells only on which side of the number the result lay.

`NC(=O)C(=CNC(=S)Nc1ccc(Cl)c(Cl)c1)C(N)=O`: the GI50 was > 94.8 µM (inactive) in the assay with SNB-19; > 70 µM (inactive) with K562; 44.8 µM (inactive) in the assay on MDA-MB-435; > 88.3 µM (inactive) in the assay with OVCAR-8; > 80.4 µM (inactive) in the assay on CCRF-CEM; > 100 µM (inactive) in the assay with SN12C. The GI50 in the assay with Malme-3M is > 100 µM (inactive); in the assay with CAKI-1, 59.4 µM (inactive); in the assay with DU-145, > 100 µM (inactive); in the assay on COLO 205, 42.8 µM (inactive); in the assay with A549, > 100 µM (inactive); in the assay with MCF7 it was > 52 µM (inactive). Moreover, the GI50 is > 61.4 µM (inactive) in the assay with A498; 65.9 µM (inactive) in the assay with EKVX; > 60.1 µM (inactive) with HL-60; > 78.7 µM (inactive) in the assay on SK-OV-3; > 100 µM (inactive) in the assay on NCI-H460; > 90.8 µM (inactive) in the assay with SF-268. Besides, the results for the GI50 with 786-0 and with SK-MEL-28 were > 71.1 µM (inactive) and > 100 µM (inactive), respectively.

As to `C[C@@](Br)(C(=O)O)[C@H](Br)C(=O)O`, the GI50 with SNB-19, with K562, with MDA-MB-435, with OVCAR-8, in the assay on CCRF-CEM and with SN12C was > 100 µM (inactive) throughout. Besides, the GI50 was > 100 µM (inactive) with Malme-3M; 55.5 µM (inactive) in the assay with CAKI-1; > 100 µM (inactive) in the assay on DU-145; > 100 µM (inactive) in the assay with COLO 205; > 100 µM (inactive) in the assay on A549; > 100 µM (inactive) with MCF7. The GI50 was > 100 µM (inactive) with A498; 83.4 µM (inactive) in the assay with EKVX; > 100 µM (inactive) with HL-60; > 100 µM (inactive) in the assay on SK-OV-3; > 100 µM (inactive) in the assay with NCI-H460; > 100 µM (inactive) in the assay on SF-268. The GI50 in the assay on 786-0 and with SK-MEL-28 was > 100 µM (inactive) each time.

Take `C#CCOC(=O)C(N)CC(N)=O` (stereo not given): the GI50 with SNB-19 was > 100 µM (inactive); in the assay on K562, 21.2 µM (inactive); in the assay on MDA-MB-435 it was > 100 µM (inactive); with OVCAR-8 it was > 100 µM (inactive); in the assay with CCRF-CEM, > 100 µM (inactive); in the assay with SN12C, > 100 µM (inactive). Moreover, the GI50 in the assay on Malme-3M, in the assay on CAKI-1, in the assay on DU-145, in the assay with COLO 205, in the assay on A549 and in the assay with MCF7 was > 100 µM (inactive) throughout. Further, the GI50 in the assay with A498, with EKVX, in the assay on HL-60, with SK-OV-3, in the assay with NCI-H460 and with SF-268 was > 100 µM (inactive) in each case. Also, the GI50 with 786-0 and in the assay on SK-MEL-28 was > 100 µM (inactive) throughout.

Take `COC(=O)/C=C\C(C#N)(C#N)/N=C/c1cccs1`: the GI50 was 30.8 µM (inactive) in the assay on SNB-19; 3.95 µM (inactive) with K562; 5.16 µM (inactive) with MDA-MB-435; 3.76 µM (inactive) in the assay with OVCAR-8; 0.533 µM (active) in the assay with CCRF-CEM; 14.7 µM (inactive) in the assay on SN12C. In addition, the GI50 in the assay with Malme-3M is 2.65 µM (inactive); in the assay on CAKI-1 it was 1.88 µM (inactive); with DU-145, 10.7 µM (inactive); in the assay with COLO 205 it was 3.68 µM (inactive); in the assay on A549, 22.6 µM (inactive); with MCF7, 2.01 µM (inactive). Besides, the GI50 in the assay on A498 is 19.9 µM (inactive); in the assay on EKVX, 9.77 µM (inactive); in the assay on HL-60, 1.63 µM (inactive); in the assay on SK-OV-3, 19 µM (inactive); in the assay with NCI-H460, 19.6 µM (inactive); with SF-268 it was 15 µM (inactive). For the same compound, the results for the GI50 in the assay on 786-0 and in the assay with SK-MEL-28 were 14.2 µM (inactive) and 8.83 µM (inactive), respectively.

As for `COc1cc(O)c2c(c1)C(O)C(O)CC1OC1C(=O)/C=C/CC(C)OC2=O` (stereo not given), the GI50 with SNB-19 is 19.8 µM (inactive); in the assay on K562 it was 1.7 µM (inactive); in the assay on MDA-MB-435, 0.838 µM (active); with OVCAR-8 it was 4.13 µM (inactive); in the assay with CCRF-CEM it was 1.26 µM (inactive); in the assay on SN12C it was 3.72 µM (inactive). In addition, the GI50 is 0.029 µM (active) with Malme-3M; 1.08 µM (active) in the assay with CAKI-1; 15.7 µM (inactive) in the assay on DU-145; 0.0877 µM (active) in the assay with COLO 205; 20.5 µM (inactive) with A549; 4.07 µM (inactive) with MCF7. The GI50 was 5.42 µM (inactive) in the assay with A498; 8.53 µM (inactive) in the assay with EKVX; 0.216 µM (active) in the assay with HL-60; 19.7 µM (inactive) with SK-OV-3; 7.03 µM (inactive) with NCI-H460; 10.4 µM (inactive) with SF-268. Besides, the GI50 in the assay with 786-0 was 3.52 µM (inactive); in the assay with SK-MEL-28 it was 0.194 µM (active).

Turning to `C[C@H](CCC(=O)O)[C@H]1CC[C@H]2[C@@H]3[C@@H](O)C[C@@H]4C[C@H](O)CC[C@]4(C)[C@H]3CC[C@]12C`, the GI50 in the assay on SNB-19 was > 100 µM (inactive); with K562, 69.8 µM (inactive); with MDA-MB-435 it was > 100 µM (inactive); in the assay on OVCAR-8, 73.8 µM (inactive); with CCRF-CEM, 60.8 µM (inactive); with SN12C, > 100 µM (inactive). Moreover, the GI50 in the assay with Malme-3M was > 100 µM (inactive); with CAKI-1, > 100 µM (inactive); in the assay on DU-145, > 100 µM (inactive); in the assay on COLO 205 it was > 100 µM (inactive); in the assay with A549, 61.4 µM (inactive); with MCF7, 86.7 µM (inactive). Besides, the GI50 with A498 was > 100 µM (inactive); with EKVX it was > 100 µM (inactive); in the assay on HL-60 it was 63.5 µM (inactive); with SK-OV-3, > 100 µM (inactive); in the assay on NCI-H460 it was 58.2 µM (inactive); in the assay on SF-268 it was > 100 µM (inactive). For the same compound, the GI50 is > 100 µM (inactive) in the assay with 786-0 and 98.6 µM (inactive) in the assay on SK-MEL-28.

As for `CCCC#CCOC(=O)c1cc([N+](=O)[O-])cc([N+](=O)[O-])c1`, the GI50 in the assay with SNB-19 is > 100 µM (inactive); in the assay with K562, > 100 µM (inactive); with MDA-MB-435 it was 41.4 µM (inactive); in the assay on OVCAR-8, > 100 µM (inactive); in the assay with CCRF-CEM, > 100 µM (inactive); in the assay on SN12C it was > 100 µM (inactive). The GI50 is 19.9 µM (inactive) in the assay with Malme-3M; > 100 µM (inactive) in the assay on CAKI-1; > 100 µM (inactive) in the assay with DU-145; > 100 µM (inactive) in the assay on COLO 205; > 100 µM (inactive) with A549; > 100 µM (inactive) in the assay on MCF7. Besides, the GI50 in the assay on A498, with EKVX, with HL-60, with SK-OV-3, in the assay on NCI-H460 and in the assay on SF-268 was > 100 µM (inactive) each time. Further, the GI50 with 786-0 and with SK-MEL-28 was > 100 µM (inactive) throughout.

What is called GI50 is the concentration at which growth is held to half of that of the control.
